Structures are written as SMILES. Converted amounts (≈) assume the structure as drawn.

Assay [1] deals with T1, Beta-ketoacyl-[acyl-carrier-protein] synthase III (Escherichia coli K-12, UniProt P0A6R0).
T1 sequence (P0A6R0 whole entry): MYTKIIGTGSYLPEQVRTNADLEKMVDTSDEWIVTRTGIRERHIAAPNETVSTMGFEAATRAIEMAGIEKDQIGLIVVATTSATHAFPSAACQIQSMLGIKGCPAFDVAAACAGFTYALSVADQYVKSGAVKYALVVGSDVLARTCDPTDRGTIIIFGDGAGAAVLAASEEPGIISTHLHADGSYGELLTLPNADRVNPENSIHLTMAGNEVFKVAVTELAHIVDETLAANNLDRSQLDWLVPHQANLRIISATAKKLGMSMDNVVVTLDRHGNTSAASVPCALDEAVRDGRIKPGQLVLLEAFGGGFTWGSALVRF
Briefly: Inhibition of Escherichia coli FabH expressed in Escherichia coli DH10B using holo-ACP/acetyl-CoA as substrate assessed as incorporation of [3H] signal in final product preincubated with holo-ACP for 1 hr followed by acetyl-CoA addition measured after 25 mins by liquid scintillation counting method.

For the next assay, the system named is Pseudomonas aeruginosa. Kind of assay: Antibacterial activity against Pseudomonas aeruginosa ATCC 27853 after 24 hrs by MTT assay. The format is functional. As to conditions: ATCC 27853, 24 h. For orientation: Tetrazolium dyes change colour on reduction, which living cells bring about.
Another assay has as its system NIH3T3. Kind of assay: Cytotoxic activity against mouse NIH/3T3 cells after 24 hrs by MTT assay. The format is cell-based. As to conditions: NIH3T3, 24 h.
The next assay relates to Escherichia coli. Briefly: Antibacterial activity against Escherichia coli ATCC 25922 after 24 hrs by MTT assay. As to conditions: ATCC 25922, 24 h. The format is functional.
A further assay relates to Bacillus subtilis. Kind of assay: Antibacterial activity against Bacillus subtilis ATCC 530 after 24 hrs by MTT assay. Type of assay: functional. As to conditions: ATCC 530, 24 h.
The next assay has as its system Staphylococcus aureus. Kind of assay: Antibacterial activity against Staphylococcus aureus ATCC 6538 after 24 hrs by MTT assay. The format is functional. As to conditions: ATCC 6538, 24 h.

With `O=C(N/N=C/c1ccc(C(F)(F)F)cc1)c1ccc2c(c1)OCCCO2`, the figures for the half-maximal inhibitory concentration (IC50) (in assay [1]; with NIH3T3) were 12.4 µM and 104 µM, respectively. In addition, the MIC with Pseudomonas aeruginosa came to 12.5 µg/mL (≈ 34.3 µM); in the assay with Escherichia coli, 25 µg/mL (≈ 68.6 µM); in the assay on Bacillus subtilis, 25 µg/mL (≈ 68.6 µM); against Staphylococcus aureus, 12.5 µg/mL (≈ 34.3 µM).

Consider `O=C(N/N=C/c1ccc([N+](=O)[O-])cc1)c1ccc2c(c1)OCCCO2`, for which the IC50 is 17.6 µM in assay [1] and 185 µM in the assay on NIH3T3. Also, the MIC in the assay on Pseudomonas aeruginosa was found to be 25 µg/mL (≈ 73.2 µM); in the assay with Escherichia coli, 25 µg/mL (≈ 73.2 µM); in the assay with Bacillus subtilis, 25 µg/mL (≈ 73.2 µM); with Staphylococcus aureus, 50 µg/mL (≈ 146 µM).

As for `CN(C)c1ccc(/C=N/NC(=O)c2ccc3c(c2)OCCCO3)cc1`, the IC50 in assay [1] was found to be 7.2 µM; in the assay on NIH3T3, 135 µM. Besides, the MIC was 12.5 µg/mL (≈ 36.8 µM) in the assay on Pseudomonas aeruginosa, 6.25 µg/mL (≈ 18.4 µM) against Escherichia coli, 6.25 µg/mL (≈ 18.4 µM) with Bacillus subtilis and 6.25 µg/mL (≈ 18.4 µM) with Staphylococcus aureus.

In general, IC50 refers to the concentration at which inhibition is half-maximal. The MIC is the smallest concentration in the dilution series that meets the test's criterion for growth inhibition.

The values are drawn from ChEMBL document CHEMBL3994564 (Medchemcomm, 2016).
